Experiments:
FXR target genes = assay: FXR target gene mRNA quantification from mouse livers; assay type: in vivo; details: 10 mg/kg p.o., 8 h post dose
Procedure: (§1) Three additional animals served as vehicle control.
(§2) A part of the blood was centrifuged (6000 rpm, 10 min, +4° C.) to obtain plasma for quantification of EET/DHET ratio and stored at −80° C. until further evaluation. For liver collection, mice were sacrificed by cervical dislocation after the last blood sampling (8 h post dose). Complete liver was immediately snap-frozen and stored at −80° C. until further evaluation. Plasma and liver were equally obtained from three control mice which received oral application of the vehicle (1% HPMC/Tween 80 (99:1)).
Quantification of FXR target gene mRNA from mouse livers: Hepatocyte isolation of mouse liver tissue for RT-qPCR: To homogenize the liver samples, one third of each liver was placed on one Falcon™ Cell Strainer with 40 μm pore size (BD Bioscience, Erembodegem, Belgium) in a 50 mL Falcon tube. Every tissue was rinsed with PBS buffer containing 10% FCS and 1% PenStrep and pressed through the cell strainer until 5 mL cell suspension had been collected. The samples were centrifuged at 1200 rpm for to min at 4° C. The supernatant was discarded and the pellets were washed with 5 mL cold PBS buffer and again centrifuged at 1200 rpm for 10 min at 4° C. After discarding the supernatant, the cell pellets were re-suspended in 1 mL PBS and total RNA was extracted using the E. Z. A. Total RNA Kit I (Omega bio-tek Inc., Narcoss, Ga., USA) following the Animal Tissue Protocol. The extracted RNA was used for qRT-PCR and equally treated as described for mRNA quantification from HepG2 cells (see above). PCR primers for the murine genes are listed in the supporting information.

PPARδ = target: T1, PPARδ (Homo sapiens, UniProt Q03181); assay: Gal4-hybrid reporter gene assay PPARδ in HEK293T cells; assay type: cell-based; details: 10 μM
T1 construct: pFA-CMV-hPPARδ-LBD; expressed in transfected cells; host or cells: HEK293T
T1 sequence (Q03181 211-439 limits assumed): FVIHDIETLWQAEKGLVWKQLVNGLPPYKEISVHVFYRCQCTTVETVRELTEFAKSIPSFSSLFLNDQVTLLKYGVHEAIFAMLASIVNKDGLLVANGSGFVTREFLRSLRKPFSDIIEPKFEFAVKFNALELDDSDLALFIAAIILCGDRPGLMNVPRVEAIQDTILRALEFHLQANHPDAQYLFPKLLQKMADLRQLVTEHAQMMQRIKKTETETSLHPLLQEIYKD
From the text: (§3) Hybrid reporter gene assays for PPARα/γ/δ, LXRα/β, RXRα/β/γ, RARα/β/γ, VDR and PXR Plasmids: The Gal4-fusion receptor plasmids pFA-CMV-hPPARα-LBD^52, pFA-CMV-hPPARγ-LBD^52, pFA-CMV-hPPARδ-LBD^52, pFA-CMV-hLXRα-LBD^32 and pFA-CMV-hLXRβ-LBD^32 have been reported previously. […] Frame and sequence of all fusion receptors were verified by sequencing. pFR-Luc (Stratagene) was used as reporter plasmid and pRL-SV40 (Promega) for normalization of transfection efficiency and cell growth.
(§4) Assay procedure: HEK293T cells were grown in DMEM high glucose, supplemented with 10% FCS, sodium pyruvate (1 mM), penicillin (100 U/mL) and streptomycin (100 μg/mL) at 37° C. and 5% CO2. The day before transfection, HEK293T cells were seeded in 96-well plates (2.5·10^4 cells/well). Before transfection, medium was changed to Opti-MEM without supplements. Transient transfection was carried out using Lipofectamine LTX reagent (Invitrogen) according to the manufacturer's protocol with pFR-Luc (Stratagene), pRL-SV40 (Promega) and pFA-CMV-hRXRα-LBD. 5 h after transfection, medium was changed to Opti-MEM supplemented with penicillin (100 U/mL), streptomycin (100 μg/mL), now additionally containing 0.1% DMSO and the respective test compound or 0.1% DMSO alone as untreated control. […] Luminescence was measured with an Infinite M200 luminometer (Tecan Deutschland GmbH). […]

LXRβ = target: T2, LXRβ (Homo sapiens, UniProt P55055); assay: Gal4-hybrid reporter gene assay LXRβ in HEK293T cells; assay type: cell-based; details: 10 μM; printed as both LXR subtypes
T2 construct: pFA-CMV-hLXRβ-LBD; expressed in transfected cells; host or cells: HEK293T
T2 sequence (P55055 222-460 limits assumed): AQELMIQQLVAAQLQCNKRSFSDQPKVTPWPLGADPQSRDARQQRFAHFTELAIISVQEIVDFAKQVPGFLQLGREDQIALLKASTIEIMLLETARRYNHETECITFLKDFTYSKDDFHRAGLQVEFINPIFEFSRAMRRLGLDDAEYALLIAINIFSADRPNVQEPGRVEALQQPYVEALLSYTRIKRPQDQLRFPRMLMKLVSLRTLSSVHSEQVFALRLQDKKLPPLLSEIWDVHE
From the text: as §3, §4

[1] = in vivo pharmacokinetic evaluation in mice; design: species or system mouse; details: single dose p.o. 10 mg/kg body weight
Procedure: as §1
Food and water were available ad libitum.
as §2

[2] = observation of animals in the pilot in vivo study; design: species or system mouse; details: single oral dose 10 mg/kg body weight
Procedure: Animals and compound application: 9 male C57BL/6JRj mice (23-26 g body weight, purchased from Janvier Labs, France) were used in the present study. The animals were housed in a temperature-controlled room (20-24° C.) and maintained in a 12 h light/12 h dark cycle. Food and water were available ad libitum. The in life phase was performed by the contract research organization Pharmacelsus (Saarbrücken, Germany). All experimental procedures were approved by and conducted in accordance with the regulations of the local Animal Welfare authorities (Landesamt für Gesundheit und Verbraucherschutz, Abteilung Lebensmittel-und Veterinärwesen, Saarbrücken). Six animals received a single oral dose of 10 mg/kg body weight of dual modulator 57 in water containing 1% HPMC/Tween 80 (99:1). Three animals received the vehicle (water containing 1% HPMC/Tween 80 (99:1)).

For `CC(C)(C)c1ccc(C(=O)NCc2ccc(NS(C)(=O)=O)cc2Cl)cc1` [compound 57, 4-(tert-Butyl)-N-(2-chloro-4-(methylsulfonamido)benzyl)benzamide], the “increased expression of BSEP in mouse liver” value (FXR target genes) was “approx. 3 fold”, the “increased expression of FGF15 in mouse liver” value (FXR target genes) was “approx. 2.5 fold” and the “increased expression of SHP in mouse liver” value (FXR target genes) was “approx. 4 fold”. The “reduced SREBP1c levels in mouse liver” value (FXR target genes) was “approx. 5 fold”, the “SREBP1c mRNA in mouse liver compared to vehicle set as 100%” value (FXR target genes; vehicle 82±14) was 17±10% and the “BSEP mRNA in mouse liver compared to vehicle set as 100%” value (FXR target genes; vehicle 105±24) was 312±103%. The “SHP mRNA in mouse liver compared to vehicle set as 100%” value (FXR target genes; vehicle 108+29) was 410±147%, the “FGF15 mRNA in mouse liver compared to vehicle set as 100%” value (FXR target genes; vehicle 119±15) was 254±9% and the “activity on PPARδ” value (PPARδ) was “inactive”. For the same compound, the “activity on LXRβ” value (LXRβ) was “inactive”, the Cmax [1] was 1182 ng/mL and the t1/2 [1] was 42 min. The tmax [1] was 30 min and the “adverse effects in mice” value [2] was “no adverse effects”.
